In PubChem BioAssay AID328 (DTP/NCI, 2004) one finds T/C data, which are given here for 17 compounds.

Toxic doses and inconclusive results are not listed.

The assay deals with BDF1 mice, P388 leukemia ip, median survival T/C. Briefly: NCI In Vivo Anticancer Drug Screen. Data for tumor model P388 Leukemia (intraperitoneal) in B6D2F1 (BDF1) mice. To be noted: endpoint: median survival time, higher = longer survival. The method, boiled down:
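Reported as T/C, where T is the survival measurement in dosed animals and C the same measurement in vehicle controls.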

Where [1] appears, read: dose: 25.0 mg/kg/injection, schedule: Q01DX009 (ip), vehicle: saline.
[2] abbreviates: dose: 50.0 mg/kg/injection, schedule: Q01DX009 (ip), vehicle: saline.
[3] abbreviates: dose: 100.0 mg/kg/injection, schedule: Q01DX009 (ip), vehicle: saline.
Where [4] appears, read: dose: 100.0 mg/kg/injection, schedule: Q01DX009 (ip), vehicle: saline with Tween-80.
[5] abbreviates: dose: 200.0 mg/kg/injection, schedule: Q01DX009 (ip), vehicle: saline with Tween-80.
Setting [6] is: dose: 400.0 mg/kg/injection, schedule: Q01DX009 (ip), vehicle: saline with Tween-80.
[7] abbreviates: dose: 25.0 mg/kg/injection, schedule: Q04DX003 (ip), vehicle: saline with Tween-80.
The mark [8] stands for this setting: dose: 50.0 mg/kg/injection, schedule: Q04DX003 (ip), vehicle: saline with Tween-80.
Where [9] appears, read: dose: 100.0 mg/kg/injection, schedule: Q04DX003 (ip), vehicle: saline with Tween-80.
The mark [10] stands for this setting: dose: 200.0 mg/kg/injection, schedule: Q04DX003 (ip), vehicle: saline with Tween-80.
[11] abbreviates: dose: 400.0 mg/kg/injection, schedule: Q04DX003 (ip), vehicle: saline with Tween-80.
The mark [12] stands for this setting: dose: 50.0 mg/kg/injection, schedule: Q01DX009 (ip), vehicle: saline with Tween-80.
Setting [13] is: dose: 100.0 mg/kg/injection, schedule: Q04DX003 (ip), vehicle: Klucel (hydroxypropylcellulose) (HPC).
Where [14] appears, read: dose: 200.0 mg/kg/injection, schedule: Q04DX003 (ip), vehicle: Klucel (hydroxypropylcellulose) (HPC).
The mark [15] stands for this setting: dose: 400.0 mg/kg/injection, schedule: Q04DX003 (ip), vehicle: Klucel (hydroxypropylcellulose) (HPC).

For `O=CC(O)C(O)C(O)C(O)CO` (stereo not drawn), the T/C is 107 % of control (dose: 31.25 mg/kg/injection, schedule: Q01DX010 (ip), vehicle: saline); 115 % of control (dose: 62.5 mg/kg/injection, schedule: Q01DX010 (ip), vehicle: saline); 115 % of control (dose: 125.0 mg/kg/injection, schedule: Q01DX010 (ip), vehicle: saline); 96 % of control (dose: 0.2 grams/kg/injection, schedule: Q03DX003 (ip), vehicle: water); 107 % of control (dose: 250.0 mg/kg/injection, schedule: Q01DX010 (ip), vehicle: saline); 97 % of control (dose: 0.4 grams/kg/injection, schedule: Q03DX003 (ip), vehicle: water). Further, the T/C was 102 % of control (dose: 0.8 grams/kg/injection, schedule: Q03DX003 (ip), vehicle: water); 93 % of control (dose: 1.5 grams/kg/injection, schedule: Q03DX003 (ip), vehicle: water); 102 % of control (dose: 3.0 grams/kg/injection, schedule: Q03DX003 (ip), vehicle: water); 98 % of control (dose: 6.0 grams/kg/injection, schedule: Q03DX003 (ip), vehicle: water); 95 % of control (dose: 12.0 grams/kg/injection, schedule: Q03DX003 (ip), vehicle: water); 101 % of control (dose: 16.0 grams/kg/injection, schedule: Q03DX003 (ip), vehicle: water).

With `O=C1C=C2C(=CCOC2O)O1` (stereo not drawn), the T/C reads like this: (dose: 0.01 mg/kg/injection, schedule: Q01DX009 (ip), vehicle: other) 104 % of control; (dose: 0.03 mg/kg/injection, schedule: Q01DX009 (ip), vehicle: other) 111 % of control; (dose: 0.1 mg/kg/injection, schedule: Q01DX009 (ip), vehicle: other) 104 % of control; (dose: 3.0 mg/kg/injection, schedule: Q01DX009 (ip), vehicle: other) 158 % of control.

Regarding `CCN(CC)C(C)CN1c2ccccc2Sc2ccccc21` (stereo not drawn), the T/C is 100 % of control under setting [1], 112 % of control under setting [2] and 116 % of control under setting [3].

Take `COc1ccc(N=Cc2cccs2)cc1`: the T/C was 119 % of control under setting [4], 96 % of control under setting [5] and 100 % of control under setting [6].

Consider `O=C(O)C1C2C=CC(C3C=CC32)C1C(=O)O` (stereo not drawn), for which the T/C was 97 % of control under setting [1]; 93 % of control under setting [2]; 97 % of control under setting [3]; 96 % of control (dose: 200.0 mg/kg/injection, schedule: Q01DX009 (ip), vehicle: saline); 102 % of control (dose: 400.0 mg/kg/injection, schedule: Q01DX009 (ip), vehicle: saline).

In the case of `O=C(O)CNC(=O)Nc1ccccc1`, the T/C runs as follows: under setting [7], 91 % of control; under setting [8], 100 % of control; under setting [9], 100 % of control; under setting [10], 87 % of control; under setting [11], 104 % of control.

Consider `CC(=O)CSc1nc2nccnc2[nH]1`, for which the T/C (dose: 25.0 mg/kg/injection, schedule: Q01DX009 (ip), vehicle: saline with Tween-80) was 111 % of control; the T/C under setting [7] is 97 % of control; the T/C under setting [12] was 111 % of control; the T/C under setting [8] is 108 % of control; the T/C under setting [4] is 106 % of control; the T/C under setting [9] was 97 % of control. In addition, the T/C is 106 % of control under setting [5], 105 % of control under setting [10], 103 % of control under setting [6] and 100 % of control under setting [11].

For `CCN1CC2(COC)C(O)CC(OC)C34C5CC6(O)C(OC)C=C(C5C6OC(=O)c5ccc(OC)c(OC)c5)C(C(OC)C23)C14` (stereo not drawn), the T/C is 120 % of control (dose: 0.19 mg/kg/injection, schedule: Q01DX009 (ip), vehicle: saline with Tween-80); 94 % of control (dose: 0.38 mg/kg/injection, schedule: Q01DX009 (ip), vehicle: saline with Tween-80); 90 % of control (dose: 0.75 mg/kg/injection, schedule: Q01DX009 (ip), vehicle: saline with Tween-80).

As for `COC(=O)c1cc(C)c(Br)c(N)c1`, the T/C by setting is: (dose: 100.0 mg/kg/injection, schedule: Q01DX009 (ip), vehicle: Klucel (hydroxypropylcellulose) (HPC)) 105 % of control; under setting [13], 109 % of control; (dose: 200.0 mg/kg/injection, schedule: Q01DX009 (ip), vehicle: Klucel (hydroxypropylcellulose) (HPC)) 100 % of control; under setting [14], 104 % of control; (dose: 400.0 mg/kg/injection, schedule: Q01DX009 (ip), vehicle: Klucel (hydroxypropylcellulose) (HPC)) 100 % of control; under setting [15], 109 % of control.

Regarding `Cc1[nH]n(CCO)c(=O)c1N=O`, the T/C is 95 % of control (dose: 15.0 mg/kg/injection, schedule: Q01DX009 (ip), vehicle: saline with Tween-80); 93 % of control (dose: 30.0 mg/kg/injection, schedule: Q01DX009 (ip), vehicle: saline with Tween-80); 100 % of control (dose: 60.0 mg/kg/injection, schedule: Q01DX009 (ip), vehicle: saline with Tween-80).

Turning to `C(/C=N/N(c1ccccc1)c1ccccc1)=N\N(c1ccccc1)c1ccccc1`, the T/C by setting is: under setting [13], 100 % of control; under setting [14], 104 % of control; under setting [15], 104 % of control.

For `NC(=S)N/N=C\c1ccc(/C=N/NC(N)=S)cc1`, the T/C under setting [7] was 111 % of control, the T/C under setting [8] was 108 % of control and the T/C under setting [9] was 100 % of control.

As for `Cn1c(=N)ccn(C2OC(CO)C(O)C2O)c1=O` (stereo not drawn) (tested in a mixture with another compound), the T/C reads like this: (dose: 200.0 mg/kg/injection, schedule: Q04DX003 (ip), vehicle: saline) 111 % of control; (dose: 400.0 mg/kg/injection, schedule: Q04DX003 (ip), vehicle: saline) 165 % of control.

In the case of `COc1ccccc1NC(=O)Oc1c(C(C)C)cccc1C(C)C`, the T/C was 95 % of control under setting [13], 87 % of control under setting [14] and 100 % of control under setting [15].

`CC(=O)OCC(=O)[C@@]1(O)CC[C@H]2[C@@H]3CCC4=CC(=O)CC[C@]4(C)[C@H]3[C@@H](O)C[C@@]21C`: the T/C by setting is: (dose: 90.0 mg/kg/injection, schedule: Q01DX010 (sc), vehicle: steriod suspending solution) 100 % of control; under setting [4], 100 % of control; (dose: 130.0 mg/kg/injection, schedule: Q01DX010 (sc), vehicle: steriod suspending solution) 88 % of control; under setting [5], 110 % of control; under setting [6], 90 % of control.

Take `CC1=Nc2ccccc2C(=O)N(C)N1`: the T/C under setting [12] is 100 % of control, the T/C under setting [4] was 104 % of control and the T/C under setting [5] was 97 % of control.

For the compound `O=[N+]([O-])c1ccc(N2CCN=N2)cc1`, the T/C runs as follows: (dose: 25.0 mg/kg/injection, schedule: Q01DX010 (ip), vehicle: saline) 104 % of control; (dose: 25.0 mg/kg/injection, schedule: Q04DX003 (ip), vehicle: saline sonified) 100 % of control; (dose: 50.0 mg/kg/injection, schedule: Q01DX010 (ip), vehicle: saline) 123 % of control; (dose: 50.0 mg/kg/injection, schedule: Q04DX003 (ip), vehicle: saline sonified) 95 % of control; (dose: 100.0 mg/kg/injection, schedule: Q04DX003 (ip), vehicle: saline sonified) 86 % of control.
